{
  "source": "patent US8796310B2",
  "about": "“Amino-pyridine-containing spleen tyrosine kinase (SYK) inhibitors” (Merck Sharp & Dohme Corp., priority 2011, dated 2014)",
  "note": "Where a name gives a salt, the structure may show the parent alone.",
  "data": [
    {"molecular_target": "recombinant human GST-Syk (Homo sapiens (Human), UniProt P43405)", "assay": "Homogeneous Time-Resolved Fluorescence (HTRF) assay for the recombinant human Syk enzyme", "assay_type": "biochemical", "conditions": "GST-hSyk 5 pM, ATP 25 μM, 10-dose titration 10 μM to 0.508 nM; values below lowest test concentration given as <0.50", "procedure": "Biological Assay Homogeneous Time-Resolved Fluorescence (HTRF) Assay for the Recombinant Human Syk Enzyme\nA recombinant GST-hSyk fusion protein was used to measure potency of compounds to inhibit human Syk activity. […] Final volume of the reaction was 10 μL. Phosphorylation of the peptide was allowed to proceed for 45′ at rt. To quench the reaction and detect the phosphorylated product, 2 nM of a Europium-anti-phosphotyrosine antibody (Perkin Elmer #AD0161) and 70 nM SA-APC (Perkin-Elmer #CR130-100) were added together in 15 mM Tris pH 7.5, 40 mM EDTA, 0.01% tween 20. Final volume of the quenching solution was 10 μL. The resulting HTRF signal was measured after 30 minutes on a EnVision (Perkin-Elmer) reader using a time-resolved fluorescence protocol.", "units": {"IC50": "pM"}, "values": [
      {"smiles": "Cc1cc(Nc2cc(N3CCN(CCN)CC3)ccn2)nc(-c2cnc(C3(O)CCCc4cc(C(=O)O)ccc43)s2)c1", "note": "(stereo not drawn) [Example 1C, 5-{5-[6-({4-[4-(2-aminoethyl)piperazin-1-yl]pyridin-2-yl}amino)-4-methylpyridin-2-yl]-1,3-thiazol-2-yl}-5-hydroxy-5,6,7,8-tetrahydronaphthalene-2-carboxylic acid]", "IC50": "< 500"},
      {"smiles": "Cc1cc(Nc2cc(C(F)(F)F)ccn2)nc(-c2cnc(C3(O)CCCCc4c(C(=O)O)cccc43)s2)c1", "note": "(single isomer, unassigned) [Example 15H, (R or S)-5-hydroxy-5-[5-(4-methyl-6-{[4-(trifluoromethyl)pyridin-2-yl]amino}pyridin-2-yl)-1,3-thiazol-2-yl]-6,7,8,9-tetrahydro-5H-benzo[7]annulene-1-carboxylic acid]", "IC50": "< 500"},
      {"smiles": "Cc1cc(Nc2cc(C(C)C)ccn2)nc(-c2cnc(C3(O)CCCc4cc(C(=O)O)ccc43)s2)c1", "note": "(stereo not drawn) [Example 1V, 5-hydroxy-5-[5-(4-methyl-6-{[4-(1-methylethyl)pyridin-2-yl]amino}pyridin-2-yl)-1,3-thiazol-2-yl]-5,6,7,8-tetrahydronaphthalene-2-carboxylic acid]", "IC50": "< 500"},
      {"smiles": "Cc1cc(Nc2cc(OC3CCOC3)ccn2)nc(-c2cnc(C3(O)CCCc4cc(C(=O)O)ccc43)s2)c1", "note": "(stereo not drawn) [Example 1T, 5-hydroxy-5-[5-(4-methyl-6-{[4-(tetrahydrofuran-3-yloxy)pyridin-2-yl]amino}pyridin-2-yl)-1,3-thiazol-2-yl]-5,6,7,8-tetrahydronaphthalene-2-carboxylic acid]", "IC50": "< 500"},
      {"smiles": "Cc1cc(Nc2cc(OC(C)C)ccn2)nc(-c2cnc(C3(O)CCCc4cc(C(=O)O)ccc43)s2)c1", "note": "(stereo not drawn) [Example 1R, 5-hydroxy-5-[5-(4-methyl-6-{[4-(propan-2-yloxy)pyridin-2-yl]amino}pyridin-2-yl)-1,3-thiazol-2-yl]-5,6,7,8-tetrahydronaphthalene-2-carboxylic acid]", "IC50": "< 500"},
      {"smiles": "Cc1cc(Nc2cc(N3CCNCC3)ccn2)nc(-c2cnc(C3(O)CCCc4cc(C(=O)O)ccc43)s2)c1", "note": "(stereo not drawn) [Example 1D, 5-hydroxy-5-[5-(4-methyl-6-{[4-(piperazin-1-yl)pyridin-2-yl]amino}pyridin-2-yl)-1,3-thiazol-2-yl]-5,6,7,8-tetrahydronaphthalene-2-carboxylic acid]", "IC50": "< 500"},
      {"smiles": "Cc1cc(Nc2cc(-n3cc(C)cn3)ccn2)nc(-c2cnc(C3(O)CCCc4cc(C(=O)O)ccc43)s2)c1", "note": "(stereo not drawn) [Example 1E, 5-hydroxy-5-[5-(4-methyl-6-{[4-(4-methyl-1H-pyrazol-1-yl)pyridin-2-yl]amino}pyridin-2-yl)-1,3-thiazol-2-yl]-5,6,7,8-tetrahydronaphthalene-2-carboxylic acid]", "IC50": "< 500"},
      {"smiles": "Cc1cc(Nc2cc(-n3cccn3)ccn2)nc(-c2cnc(C3(O)CCCc4cc(C(=O)O)ccc43)s2)c1", "note": "(stereo not drawn) [Example 1F, 5-hydroxy-5-[5-(4-methyl-6-{[4-(1H-pyrazol-1-yl)pyridin-2-yl]amino}pyridin-2-yl)-1,3-thiazol-2-yl]-5,6,7,8-tetrahydronaphthalene-2-carboxylic acid]", "IC50": "< 500"},
      {"smiles": "Cc1cc(Nc2cc(C(F)F)ccn2)nc(-c2cnc(C3(O)CCCc4cc(C(=O)O)ccc43)s2)c1", "note": "(stereo not drawn) [Example 1A, 5-[5-(6-{[4-(difluoromethyl)pyridin-2-yl]amino}-4-methylpyridin-2-yl)-1,3-thiazol-2-yl]-5-hydroxy-5,6,7,8-tetrahydronaphthalene-2-carboxylic acid]", "IC50": "< 500"},
      {"smiles": "CCOc1ccnc(Nc2cc(C)cc(-c3cnc(C4(O)CCCc5cc(C(=O)O)ccc54)s3)n2)c1", "note": "(stereo not drawn) [Example 1N, 5-(5-{6-[(4-ethoxypyridin-2-yl)amino]-4-methylpyridin-2-yl}-1,3-thiazol-2-yl)-5-hydroxy-5,6,7,8-tetrahydronaphthalene-2-carboxylic acid]", "IC50": "< 500"},
      {"smiles": "Cc1cc(Nc2cc(-n3ccc(C)n3)ccn2)nc(-c2cnc(C3(O)CCCc4cc(C(=O)O)ccc43)s2)c1", "note": "(stereo not drawn) [Example 1J, 5-hydroxy-5-[5-(4-methyl-6-{[4-(3-methyl-1H-pyrazol-1-yl)pyridin-2-yl]amino}pyridin-2-yl)-1,3-thiazol-2-yl]-5,6,7,8-tetrahydronaphthalene-2-carboxylic acid]", "IC50": "< 500"},
      {"smiles": "Cc1cc(Nc2cc(C3CC3)ccn2)nc(-c2cnc(C3(O)CCCc4cc(C(=O)O)ccc43)s2)c1", "note": "(stereo not drawn) [Example 1U, 5-(5-{6-[(4-cyclopropylpyridin-2-yl)amino]-4-methylpyridin-2-yl}-1,3-thiazol-2-yl)-5-hydroxy-5,6,7,8-tetrahydronaphthalene-2-carboxylic acid]", "IC50": "< 500"},
      {"smiles": "CCCc1ccnc(Nc2cc(C)cc(-c3cnc(C4(O)CCCc5cc(C(=O)O)ccc54)s3)n2)c1", "note": "(stereo not drawn) [Example 1M, 5-hydroxy-5-(5-{4-methyl-6-[(4-propylpyridin-2-yl)amino]pyridin-2-yl}-1,3-thiazol-2-yl)-5,6,7,8-tetrahydronaphthalene-2-carboxylic acid]", "IC50": "< 500"},
      {"smiles": "Cc1cc(Nc2cc(OC(C)(C)C)ccn2)nc(-c2cnc([C@@]3(O)CCCc4cc(C(=O)O)ccc43)s2)c1", "note": "[Example 1, (R)-5-(5-{6-[(4-Tert-butoxypyridin-2-yl)amino]-4-methylpyridin-2-yl}-1,3-thiazol-2-yl)-5-hydroxy-5,6,7,8-tetrahydronaphthalene-2-carboxylic acid, ammonia salt]", "IC50": "< 500"},
      {"smiles": "Cc1ccnc(Nc2cc(C)cc(-c3cnc(C4(O)CCCc5cc(C(=O)O)ccc54)s3)n2)c1", "note": "(stereo not drawn) [Example 1H, 5-hydroxy-5-(5-{4-methyl-6-[(4-methylpyridin-2-yl)amino]pyridin-2-yl}-1,3-thiazol-2-yl)-5,6,7,8-tetrahydronaphthalene-2-carboxylic acid]", "IC50": "< 500"},
      {"smiles": "Cc1cc(Nc2cc(C3CCC3)ccn2)nc(-c2cnc(C3(O)CCCc4cc(C(=O)O)ccc43)s2)c1", "note": "(stereo not drawn) [Example 1K, 5-(5-{6-[(4-cyclobutylpyridin-2-yl)amino]-4-methylpyridin-2-yl}-1,3-thiazol-2-yl)-5-hydroxy-5,6,7,8-tetrahydronaphthalene-2-carboxylic acid]", "IC50": "< 500"},
      {"smiles": "Cc1cc(Nc2cc(C(F)(F)F)ccn2)nc(-c2cnc([C@@]3(O)CCCc4cc(C(=O)Nc5nnn[nH]5)ccc43)s2)c1", "note": "[Example 22E, (R)-5-hydroxy-5-[5-(4-methyl-6-{[4-(trifluoromethyl)pyridin-2-yl]amino}pyridin-2-yl)-1,3-thiazol-2-yl]-N-1H-tetrazol-5-yl-5,6,7,8-tetrahydronaphthalene-2-carboxamide]", "IC50": "< 500"},
      {"smiles": "CCc1ccnc(Nc2cc(C)cc(-c3cnc(C4(O)CCCc5cc(C(=O)O)ccc54)s3)n2)c1", "note": "(stereo not drawn) [Example 1P, 5-(5-{6-[(4-ethylpyridin-2-yl)amino]-4-methylpyridin-2-yl}-1,3-thiazol-2-yl)-5-hydroxy-5,6,7,8-tetrahydronaphthalene-2-carboxylic acid]", "IC50": "< 500"},
      {"smiles": "Cc1cc(Nc2cc(C(F)(F)F)ccn2)nc(-c2cnc(C3(O)CCCCc4c(C(=O)O)cccc43)s2)c1", "note": "(single isomer, unassigned) [Example 15G, (R or S)-5-hydroxy-5-[5-(4-methyl-6-{[4-(trifluoromethyl)pyridin-2-yl]amino}pyridin-2-yl)-1,3-thiazol-2-yl]-6,7,8,9-tetrahydro-5H-benzo[7]annulene-1-carboxylic acid]", "IC50": "< 500"},
      {"smiles": "Cc1cc(Nc2cc(-c3nnc(C)o3)ccn2)nc(-c2cnc(C3(O)CCCc4cc(C(=O)O)ccc43)s2)c1", "note": "(stereo not drawn) [Example 1S, 5-hydroxy-5-[5-(4-methyl-6-{[4-(5-methyl-1,3,4-oxadiazol-2-yl)pyridin-2-yl]amino}pyridin-2-yl)-1,3-thiazol-2-yl]-5,6,7,8-tetrahydronaphthalene-2-carboxylic acid]", "IC50": "< 500"},
      {"smiles": "Cc1cc(Nc2cc(C(F)(F)F)ccn2)nc(-c2cnc([C@@]3(O)CCCc4cc(C(=O)NS(=O)(=O)C5CC5)ccc43)s2)c1", "note": "[Example 22A, (R)-N-(cyclopropylsulfonyl)-5-hydroxy-5-[5-(4-methyl-6-{[4-(trifluoromethyl)pyridin-2-yl]amino}pyridin-2-yl)-1,3-thiazol-2-yl]-5,6,7,8-tetrahydronaphthalene-2-carboxamide]", "IC50": "< 500"}
    ]},
    {"system": "PGD2", "assay": "not given", "conditions": "dosed intranasally, phase I/II study, allergic rhinitis; cited from earlier work", "values": [
      {"smiles": "Oc1cccc(Nc2ncc(F)c(Nc3cccc(O)c3)n2)c1", "note": "[Example R112]", "clinical safety": "safe across a range of indicators", "decrease in PGD2": "statistically significant decrease"}
    ]},
    {"system": "not given", "assay": "not given", "conditions": "phase II clinical trial, allergic rhinitis; cited from earlier work", "values": [
      {"smiles": "Oc1cccc(Nc2ncc(F)c(Nc3cccc(O)c3)n2)c1", "note": "[Example R112]", "efficacy versus placebo": "lack of efficacy"}
    ]}
  ]
}
